Data taken from patent US20120270778A1, “Compositions and Methods for Non-Invasive Treatment of Chronic Complications of Diabetes” (Aegis Therapeutics LLC, priority 2009, published 2012).

Columns and labels:
[1] = system: diabetes-induced hyperfiltration; details: in vivo; cited from earlier work
[2] = system: type 1 diabetes; details: human; cited from earlier work
[3] = Serum insulin and C-peptide levels after nasal administration of combined formulations to rats; assay type: in vivo
Experimental: Test System—Sprague Dawley rats, females; 325 grams are used throughout this study. Rats are anesthetized by isoflurane/O2 mixture. To a first and second group of three rats each is administered vehicle containing C-peptide concentration of 1 and 10 mg/mL as described in Example 1 to which is added 0.1% benzallconium chloride as a preservative. To a third and fourth group of 3 rats each is administered vehicle containing C-peptide concentration of 1 and 10 mg/mL as described above to which is added 45 mg/mL methyl-beta-cyclodextrin (Sigma-Aldrich). […]
Analysis Procedure—The serum was frozen at approximately −70° C. in pre-labeled, plastic tubes, and tightly capped, and stored at approximately −70° C. until ready for testing. […]
Solutions prepared as described in Example 3 were administered nasally to rats and tested as described in Example 2 except with the addition that serum human insulin determinations were made using the Human Insulin ELISA Kit™ from Diagnostic Systems Laboratories, Inc, Webster, Tex. The relative molar ratios of insulin to C-peptide in serum for each formulation was calculated by taking the ratio of the insulin concentration to the C-peptide concentration at a fixed time point. In Table 2 below, ratios of the concentrations of insulin and C-peptide for concentrations measured at two time points, namely 20 min. and 40 min. post nasal instillation. […]

[4] = target: insulin (Homo sapiens, UniProt P01308); details: cited from earlier work
[5] = system: patients with early-stage type 1 diabetic neuropathy; details: treatment for 6 months; cited from earlier work
[6] = system: rat model of type 1 diabetes; details: cited from earlier work
[7] = system: islet cell; details: cited from earlier work
[8] = system: normal and diabetic mice; details: repressed by insulin; cited from earlier work
[9] = in vivo, inhaled or intranasal; cited from earlier work

insulin, sequence (P01308 25-54 limits assumed, species assumed): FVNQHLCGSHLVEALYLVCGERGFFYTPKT
insulin, sequence (P01308 90-110 limits assumed, species assumed): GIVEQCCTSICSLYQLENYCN

| Substance | effect on diabetes-induced hyperfiltration, renal hypertrophy and albuminuria [1] | effect on diabetes-induced renal and nerve dysfunction [2] | rate of absorption relative to insulin [3] | effect on insulin aggregation [4] | effect on sensory nerve function [5] | effect on neuropathy [6] | effect on islet cell apoptosis [7] | antithrombotic effects [8] | systemic bioavailability by intranasal route [9] [%] |
| --- | --- | --- | --- | --- | --- | --- | --- | --- | --- |
| EVARQ | reduce diabetes-induced hyperfiltration, as well as renal hypertrophy and albuminuria |  |  |  |  |  |  |  |  |
| Proinsulin C-Peptide (55-89), human | reduce diabetes-induced hyperfiltration, as well as renal hypertrophy and albuminuria | amelioration of diabetes-induced renal and nerve dysfunction | slightly, but not significantly, more rapidly than insulin | elicit disaggregation of insulin | improved sensory nerve function | improves neuropathy | decreases islet cell apoptosis | exerts antithrombotic effects |  |
| salmon calcitonin |  |  |  |  |  |  |  |  | 3 |
